Reference: article PMC3518395 (Nature communications, 2012)
Square brackets hold non-standard residues; d marks the D form.

Tests used:
[1] = test system: αvβ3; conditions: cited from earlier work
[2] = target: integrin αvβ3 (Homo sapiens) (UniProt P06756); conditions: cited from earlier work
[3] = target: T1, DNA:PNA-D5 (15 c(RGDfK) ligands) (also: 15 copies conjugated via PEG/squarate linker to LKγ-PNA:DNA scaffold); assay: 125I-echistatin competitive displacement on C32 cells
T1 chain: cyclo(RGD[dF]K)

## Echistatin
[1]; published value, fixed in the fit
  echistatin association constant for binding to αvβ3 integrin: 3.33e+09 M
[1]; read-out: Kd of echistatin for αvβ3
  Kd: 300 pM

## echistatin (from UniProt P17347)
[2]
  Kd: 300 pM

B1: integrin αvβ3 (protein)
chain 1: FNLDVDSPAEYSGPEGSYFGFAVDFFVPSASSRMFLLVGAPKANTTQPGIVEGGQVLKCDWSSTRRCQPIEFDATGNRDYAKDDPLEFKSHQWFGASVRSKQDKILACAPLYHWRTEMKQEREPVGTCFLQDGTKTVEYAPCRSQDIDADGQGFCQGGFSIDFTKADRVLLGGPGSFYWQGQLISDQVAEIVSKYDPNVYSIKYNNQLATRTAQAIFDDSYLGYSVAVGDFNGDGIDDFVSGVPRAARTLGMVYIYDGKNMSSLYNFTGEQMAAYFGFSVAATDINGDDYADVFIGAPLFMDRGSDGKLQEVGQVSVSLQRASGDFQTTKLNGFEVFARFGSAIAPLGDLDQDGFNDIAIAAPYGGEDKKGIVYIFNGRSTGLNAVPSQILEGQWAARSMPPSFGYSMKGATDIDKNGYPDLIVGAFGVDRAILYRARPVITVNAGLEVYPSILNQDNKTCSLPGTALKVSCFNVRFCLKADGKGVLPRKLNFQVELLLDKLKQKGAIRRALFLYSRSPSHSKNMTISRGGLMQCEELIAYLRDESEFRDKLTPITIFMEYRLDYRTAADTTGLQPILNQFTPANISRQAHILLDCGEDNVCKPKLEVSVDSDQKKIYIGDDNPLTLIVKAQNQGEGAYEAELIVSIPLQADFIGVVRNNEALARLSCAFKTENQTRQVVCDLGNPMKAGTQLLAGLRFSVHQQSEMDTSVKFDLQIQSSNLFDKVSPVVSHKVDLAVLAAVEIRGVSSPDHVFLPIPNWEHKENPETEEDVGPVVQHIYELRNNGPSSFSKAMLHLQWPYKYNNNTLLYILHYDIDGPMNCTSDMEINPLRIKISSLQTTEKNDTVAGQGERDHLITKRDLALSEGDIHTLGCGVAQCLKIVCQVGRLDRGKSAILYVKSLLWTETFMNKENQNHSYSLKSSASFNVIEFPYKNLPIEDITNSTLVTTNVTWGIQPAPMPV
chain 2: GPNICTTRGVSSCQQCLAVSPMCAWCSDEALPLGSPRCDLKENLLKDNCAPESIEFPVSEARVLEDRPLSDKGSGDSSQVTQVSPQRIALRLRPDDSKNFSIQVRQVEDYPVDIYYLMDLSYSMKDDLWSIQNLGTKLATQMRKLTSNLRIGFGAFVDKPVSPYMYISPPEALENPCYDMKTTCLPMFGYKHVLTLTDQVTRFNEEVKKQSVSRNRDAPEGGFDAIMQATVCDEKIGWRNDASHLLVFTTDAKTHIALDGRLAGIVQPNDGQCHVGSDNHYSASTTMDYPSLGLMTEKLSQKNINLIFAVTENVVNLYQNYSELIPGTTVGVLSMDSSNVLQLIVDAYGKIRSKVELEVRDLPEELSLSFNATCLNNEVIPGLKSCMGLKIGDTVSFSIEAKVRGCPQEKEKSFTIKPVGFKDSLIVQVTFDCDCACQAQAEPNSHRCNNGNGTFECGVCRCGPGWLGSQCECSEEDYRPSQQDECSPREGQPVCSQRGECLCGQCVCHSSDFGKITGKYCECDDFSCVRYKGEMCSGHGQCSCGDCLCDSDWTGYYCNCTTRTDTCMSSNGLLCSGRGKCECGSCVCIQPGSYGDTCEKCPTCPDACTFKKECVECKKFDRGALHDENTCNRYCRDEIESVKELKDTGKDAVNCTYKNEDDCVVRFQYYEDSSGKSILYVVEEPECPKGPD
[3]
  Kd: 160 pM
